Results as given in US9114159B2, “Transcription factors in neuronal dendrites-dendritic protein synthesis and cell death” (The Trustees of the University of Pennsylvania, priority 2005, dated 2015).
Entries after “also recorded” stand apart in the source; their conditions may differ. Where two headings read alike, the source gives them in different places. *1 amine or outer side, *2 acyl side, *3 side chain or, on linkers, in order; H or OH if unused. Where a SMILES comes first, the peptide text is derived from it. Bridges are numbered along the chain shown (N, C = ends). Roman numbers before positions name the chains, in order. [ ]: non-standard residue; d: D form. Actinocin(9to1) = Cc1c2oc3c(C)ccc(C(=O)[*:1])c3nc-2c(C(=O)[*:2])c(N)c1=O; NMeV = CN[C@H](C(=O)O)C(C)C; Sar = CNCC(=O)O

Key:
[1] = test system: primary rat hippocampal neurons; conditions: for effect on Elk-1 induced cell death: Elk-1 GFP mRNA photoporated into dendrites
Description: Cultured primary rat hippocampal neurons were bathed in 10-15 μg capped mRNA in 1 ml extracellular saline at 37° C. In some cases, neurons were pre-incubated with the translation inhibitor, anisomycin (5 μM), the mitochondrial PTP inhibitor, bongkrekic (BKA; 25 μM), or the transcriptional inhibitor, actinomycin D (1 μg/ml).
Samples were imaged and photoporated using a Prairie Ultima multiphoton scan head attached to an Olympus BX61 fixed-stage upright microscope equipped with a 40× water immersion lens (LUMPlanFI/IR, N.A. 0.8). 8 to 16 points were selected over a 2 μm×2 μm area for photoporation. A Ti-sapphire laser (Mai-Tai®, Spectral-Physics, Mountain View, Calif.) was used to make transient poration sites for 5 milliseconds at 30 mW (at back aperture of lens) energy. After photoporation, samples were transferred to an Olympus IX81 inverted microscope for simultaneous GFP fluorescence and DIC imaging. All images were processed with Metamorph (Universal Imaging Corporation) image processing software. For cell death assays, a LIVE/DEAD cell viability/cytotoxicity kit (Molecular Probes) was used according to the manufacturer's instructions.
A cell viability/cytotoxicity assay (Invitrogen Molecular Probes, Carlsbad, Calif.) was used to confirm the morphological observations of cell death following Elk-1 GFP mRNA photoporation. […] Obvious morphological signs of cell death may take hours to become apparent, whereas the use of a nuclear dye allows rapid identification of neurons that are in the process of dying.

[2] = test system: primary rat corticol neurons; experiment: Elk-1 association with mitochondria, Western blotting of mitochondrial fractions; type: cell-based; conditions: Western blotting after drug application
Description: Mitochondrial fractionation for western blots: A mitochondrial isolation kit (Pierce) was used according to the manufacturer's instructions to isolate mitochondria from primary neuronal cultures. Once isolated, mitochondria were lysed in buffer containing: 150 mM NaCl, 1% NP-40, 0.5% Deoxycholic acid, 0.1% SDS, 50 mM Tris, 10 ug/mL Aprotinin, 5 ug/mL Leupeptin, 1 mM sodium orthovanidate, 1 mM PMSF and 100 ug/mL TPCK. Lysate was then used for western blotting with the following antibodies: Elk-1 (Cell Signaling Technology), VDAC 1 (Santa Cruz Biotechnology), NeuN (Abcam).
To examine whether specific cellular insults could increase or decrease the association between Elk-1 and mitochondria, primary rat corticol neurons were exposed to a variety of compounds known to induce cell death in neurons, and mitochondrial fractions were then isolated and used for Western blotting.

[3] = test system: primary rat hippocampal neurons; experiment: DAPI and Hoechst nuclear stains for pycnotic nuclei; type: cell-based; conditions: cells treated for 3 hours with 30 μM
Description: FIG. 5A is a graph depicting cell counts after Elk-1 over-expression. Neurons electroporated with Elk-1 in a pcDNA vector were stained with a MAP2 antibody at 48, 72, 96 and 168 hours after plating. Two 5× images of MAP2 immunoreactive neurons were taken for each experiment, and MAP2 positive neurons were counted manually. Shown are the percent decreases in MAP2 positive neurons compared to control. (Line=best fit) FIG. 5B are images of MAP2 immunoreactivity from neurons electroporated with a control pcDNA vector (right image) or with Elk-1 in pcDNA (left image). FIG. […] Scale bar=20 μm.
In order to assess whether neurons were dying via apoptosis or necrosis following Elk-1 over-expression, DAPI and Hoechst nuclear stains were used to look for evidence of pycnotic nuclei, characteristic of an apoptotic phenotype.

[4] = test system: primary rat hippocampal neurons; experiment: Elk-1 immunocytochemistry after mGluR stimulation; type: cell-based; conditions: 30-minute application, 50 μM, n=7
Description: Immunocytochemistry/immunohistochemistry: Three polyclonal antibodies raised against Elk-1 (Santa Cruz Biotechnology, Santa Cruz, Calif.; Cell Signaling Technology, Beverly, Mass.) were used to detect Elk-1 protein in primary rat hippocampal cultures and in adult rat brain sections. A monoclonal antibody raised against a synthetic phospho-peptide of Elk-1 was used to detect Elk-1 protein phosphorylated at S383 (Cell Signaling Technology). […] For stimulation experiments, cultured neurons were placed in warm Hals buffer (pH=7.4) and treated with the Group I mGluR agonist, dihydrophenylglycine (DHPG; Tocris Cookson Inc., Ellisville, Mo.) at a final concentration of 50 μM for 30 minutes at 37° C. prior to fixation and immunocytochemistry.

## CO[C@H](C/C=C\C=C\CC/C=C/C[C@H](C)/C=C/C(=C\C(=O)O)CC(=O)O)/C(C)=C\C=C(/C)C(=O)O [BKA, bongkrekic acid]
[1]; pre-incubation with mitochondrial PTP inhibitor 25 μM, n=10
  effect on Elk-1 induced cell death: blocked; also recorded: cells did not die

## COc1ccc(C[C@H]2NC[C@H](O)[C@H]2OC(C)=O)cc1 [anisomycin]
[1]; pre-incubation with translational inhibitor 5 μM, Elk-1 GFP mRNA photoporated
  effect on Elk-1-induced cell death: blocked; also recorded: absence of cell death

## CC[C@@]1(O)C(=O)OCc2c1cc1n(c2=O)Cc2cc3ccccc3nc2-1 [camptothecin]
[2]
  Elk-1 association with mitochondria: increased its association with mitochondria
[3]
  pycnotic nuclei: presence of pycnotic nuclei

## Cc1c2oc3c(C)ccc(C(=O)N[C@@H]4C(=O)N[C@H](C(C)C)C(=O)N5CCC[C@H]5C(=O)N(C)CC(=O)N(C)[C@@H](C(C)C)C(=O)O[C@@H]4C)c3nc-2c(C(=O)N[C@@H]2C(=O)N[C@H](C(C)C)C(=O)N3CCC[C@H]3C(=O)N(C)CC(=O)N(C)[C@@H](C(C)C)C(=O)O[C@@H]2C)c(N)c1=O [actinomycin D] (I: T[dV]P[Sar][NMeV] / II: T[dV]P[Sar][NMeV]; ester I:1-I:C, II:1-II:C; linker I:N-II:N via Actinocin(9to1))
[1]; pre-incubation with transcriptional inhibitor 1 μg/ml, n=7
  effect on Elk-1 induced cell death: inhibited

## N[C@H](C(=O)O)c1cc(O)cc(O)c1 [DHPG, dihydrophenylglycine]
[4]
  Elk-1 immunoreactivity in both cell somas and dendrites: substantial increase
